Among the test systems are ACHN; K562; SK-MEL-2; SF-268; HOP-92; HCT-15; UACC-62; CAKI-1; HT-29; SN12C; NCI-H522; NCI-H226; SNB-19; HL-60; EKVX; RXF 393; HCT-116; OVCAR-4; OVCAR-5; HCC 2998.
Common to all, as to assay: DTP human tumour cell line panel, 48 h

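Assay format: 96-well plates, 48-hour exposure. GI50 marks 50% less growth.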 The source made the active and inactive calls. Rule as the data show it: active = GI50 up to about 1.1 µM and inactive = higher.

For the molecule `CC1=NC(C(=O)O)Cc2c1[nH]c1ccccc21` (stereo unspecified), the GI50 – broadly, the concentration giving 50% growth inhibition – in the assay with ACHN is > 100 µM (inactive); in the assay with K562 it was > 100 µM (inactive); in the assay with SK-MEL-2, > 100 µM (inactive); with SF-268 it was > 100 µM (inactive); in the assay with HOP-92 it was 14.6 µM (inactive); with HCT-15 it was over 100 µM. Also, the GI50 in the assay with UACC-62, in the assay on CAKI-1, in the assay with HT-29, in the assay on SN12C, in the assay on NCI-H522 and in the assay on NCI-H226 was > 100 µM (inactive) in each case. For the same molecule, the GI50 with SNB-19, with HL-60 and with EKVX was > 100 µM (inactive) each time.

As for `O=C1NC2(CCCCC2)C2CCCCCC12` (stereo unspecified), the GI50 in the assay on ACHN, with K562, with RXF 393, in the assay with SF-268, in the assay on HCT-116 and in the assay with OVCAR-4 was > 100 µM (inactive) throughout. Further, the GI50 in the assay on HCT-15 is over 100 µM; with OVCAR-5, > 100 µM (inactive); in the assay with UACC-62 it was > 100 µM (inactive); in the assay on HT-29 it was > 100 µM (inactive); in the assay with SN12C, > 100 µM (inactive); in the assay with NCI-H226, > 100 µM (inactive). For the same molecule, the GI50 in the assay with SNB-19, with HCC 2998, with HL-60 and in the assay on EKVX was > 100 µM (inactive) throughout.

As for `O=C1CN(c2ccccc2)C(=O)C1C(=O)Nc1ccc(Cl)c(Cl)c1` (stereo unspecified), the GI50 in the assay on ACHN was 4 µM (inactive); with K562, 0.604 µM (active); in the assay on SF-268, 6.32 µM (inactive); in the assay on HOP-92, 2.53 µM (inactive); in the assay on OVCAR-4 it was 11.7 µM (inactive); in the assay on HCT-15 it was 1.56 µM. Further, the GI50 in the assay with OVCAR-5 was 30.4 µM (inactive); with UACC-62, 1.73 µM (inactive); with HT-29, 3.68 µM (inactive); with SN12C, 4.73 µM (inactive); with NCI-H522, 2.05 µM (inactive); in the assay on SNB-19 it was 4.62 µM (inactive). In addition, the GI50 in the assay with HL-60 is 0.667 µM (active).

Regarding `CO/C(=N/N1CC1C(F)(F)F)c1ccncc1` (stereo unspecified), the GI50 is > 100 µM (inactive) in the assay with K562; > 100 µM (inactive) with SK-MEL-2; 45.1 µM (inactive) in the assay with RXF 393; > 100 µM (inactive) with HOP-92; > 100 µM (inactive) in the assay with HCT-116; > 100 µM (inactive) in the assay on OVCAR-4. Moreover, the GI50 was over 100 µM in the assay with HCT-15; > 100 µM (inactive) in the assay with OVCAR-5; > 100 µM (inactive) with UACC-62; > 100 µM (inactive) in the assay on CAKI-1; > 100 µM (inactive) in the assay on HT-29; > 100 µM (inactive) with SN12C. For the same molecule, the GI50 with NCI-H522, in the assay with NCI-H226, in the assay with SNB-19 and with HL-60 was > 100 µM (inactive) in each case.

Regarding `N#CC(=N)c1ncn(-c2ccccc2N)c1N`, the GI50 in the assay on ACHN, in the assay on K562, in the assay on SK-MEL-2, with SF-268, in the assay with HCT-116 and in the assay with OVCAR-4 was > 100 µM (inactive) in each case. In addition, the concentration for 50% growth inhibition (GI50) was over 100 µM in the assay on HCT-15; > 100 µM (inactive) in the assay on OVCAR-5; > 100 µM (inactive) with UACC-62; > 100 µM (inactive) in the assay on CAKI-1; > 100 µM (inactive) in the assay with HT-29; > 100 µM (inactive) in the assay with SN12C. The GI50 with NCI-H522, with NCI-H226, with SNB-19, with HCC 2998, in the assay with HL-60 and with EKVX was > 100 µM (inactive) in each case.

With `O=C(NNC(=S)NCc1ccccc1)C12CC3CC(CC(C3)C1)C2`, the GI50 is 54.7 µM (inactive) with ACHN; 55.5 µM (inactive) with K562; 99.1 µM (inactive) in the assay with SK-MEL-2; 89.1 µM (inactive) in the assay with RXF 393; 58.9 µM (inactive) with SF-268; 34.5 µM (inactive) in the assay on HCT-116. Moreover, the GI50 is 76.6 µM (inactive) in the assay on OVCAR-4; 53.3 µM in the assay on HCT-15; > 100 µM (inactive) in the assay on OVCAR-5; 66.7 µM (inactive) with UACC-62; 45.3 µM (inactive) in the assay on HT-29; > 100 µM (inactive) in the assay on SN12C. The GI50 with NCI-H522 is > 100 µM (inactive); in the assay with NCI-H226 it was > 100 µM (inactive); in the assay with SNB-19 it was > 100 µM (inactive); with HCC 2998, 69.8 µM (inactive); in the assay on HL-60, 22.4 µM (inactive).

As for `COc1cc2c(cc1OC)C(Cl)C(c1cc(OC)c(OC)c(OC)c1)=C2Cl` (stereo unspecified), the GI50 in the assay on ACHN is 13.6 µM (inactive); in the assay on K562 it was 12.4 µM (inactive); in the assay on SK-MEL-2 it was 15.5 µM (inactive); with SF-268, 16.6 µM (inactive); in the assay with HOP-92, 4.73 µM (inactive); in the assay with HCT-15, 14.6 µM. Moreover, the GI50 was 13.6 µM (inactive) in the assay with UACC-62; 9.1 µM (inactive) with CAKI-1; 14.4 µM (inactive) in the assay on HT-29; 13.9 µM (inactive) with SN12C; 6.01 µM (inactive) in the assay on NCI-H522; 18.7 µM (inactive) in the assay on NCI-H226. Moreover, the GI50 with SNB-19 was 14.3 µM (inactive); in the assay on HL-60, 13.6 µM (inactive); in the assay on EKVX, 19.1 µM (inactive).

Consider `C1CCC2(CC1)O[C@@H]1[C@@H](O2)[C@@H](O[C@H]2O[C@@H]3COC4(CCCCC4)O[C@H]3[C@@H]3OC4(CCCCC4)O[C@@H]23)O[C@@H]2COC3(CCCCC3)O[C@@H]12`, for which the GI50 in the assay on ACHN, in the assay on K562, in the assay with SK-MEL-2, with RXF 393, with SF-268 and with HOP-92 was > 100 µM (inactive) each time. Besides, the GI50 with HCT-116, with OVCAR-4, in the assay with OVCAR-5, in the assay on UACC-62, in the assay with CAKI-1 and in the assay on HT-29 was > 100 µM (inactive) in each case. The GI50 in the assay with SN12C was > 100 µM (inactive); with NCI-H522, > 100 µM (inactive); in the assay on SNB-19, > 100 µM (inactive); in the assay on HL-60 it was 11.4 µM (inactive); in the assay with EKVX, > 100 µM (inactive).

For the molecule `CCOC(=O)CC(NC(=O)c1ccc(/N=N/N(C)C)cc1)C(=O)OCC` (stereo unspecified), the GI50 with ACHN, with K562, in the assay with SK-MEL-2, in the assay on SF-268, with HCT-116 and in the assay with OVCAR-4 was > 100 µM (inactive) throughout. Further, the concentration for 50% growth inhibition (GI50) with HCT-15 is over 100 µM; with OVCAR-5 it was > 100 µM (inactive); in the assay on UACC-62, 63.4 µM (inactive); in the assay with CAKI-1, > 100 µM (inactive); with HT-29, > 100 µM (inactive); in the assay on SN12C it was > 100 µM (inactive). The GI50 in the assay on NCI-H522, with NCI-H226, in the assay on SNB-19, in the assay with HCC 2998, with HL-60 and with EKVX was > 100 µM (inactive) each time.

On to `CCN(CC)CCN(C(=O)C(C)(C)C)c1ccccc1N`, for which the GI50 in the assay with ACHN, with K562, in the assay on RXF 393, with SF-268, with HOP-92 and in the assay on HCT-116 was > 100 µM (inactive) each time. The GI50 in the assay with OVCAR-4 is > 100 µM (inactive); in the assay on HCT-15, over 100 µM; in the assay on OVCAR-5, > 100 µM (inactive); in the assay on UACC-62, > 100 µM (inactive); with CAKI-1, > 100 µM (inactive); in the assay on HT-29, > 100 µM (inactive). Besides, the GI50 with SN12C, with NCI-H522, in the assay on NCI-H226, in the assay on SNB-19, in the assay on HL-60 and in the assay on EKVX was > 100 µM (inactive) in each case.

With `Clc1ccc2c(c1)CC1C[N+]3=C(CCCCC3)C1=C2` (stereo unspecified), the GI50 in the assay with ACHN is > 100 µM (inactive); in the assay on K562, > 100 µM (inactive); in the assay on SK-MEL-2, 28.8 µM (inactive); in the assay on RXF 393 it was > 100 µM (inactive); in the assay with SF-268, 50.8 µM (inactive); in the assay with HOP-92, 7.1 µM (inactive). The GI50 in the assay with HCT-116 is > 100 µM (inactive); in the assay on OVCAR-4, 54.8 µM (inactive); in the assay with HCT-15, over 100 µM; with OVCAR-5 it was > 100 µM (inactive); with UACC-62 it was > 100 µM (inactive); with CAKI-1, > 100 µM (inactive). Besides, the GI50 in the assay on HT-29 is 37.8 µM (inactive); with SN12C, 80.4 µM (inactive); with NCI-H522, 38.8 µM (inactive); in the assay on NCI-H226, 69.7 µM (inactive); with SNB-19 it was 51.8 µM (inactive); with HL-60 it was > 100 µM (inactive). In addition, the GI50 in the assay with EKVX was 45.6 µM (inactive).

As for `CCOC(=O)NC(=O)c1cn(CCSCCOC(=O)NCCCCCCNC(=O)OCCSCCn2cc(C(=O)NC(=O)OCC)c(=O)[nH]c2=O)c(=O)[nH]c1=O`, the GI50 in the assay on ACHN, in the assay on K562, in the assay with RXF 393, with HOP-92, in the assay on HCT-116 and in the assay on OVCAR-4 was > 100 µM (inactive) throughout. For the same molecule, the GI50 in the assay with HCT-15 was over 100 µM; in the assay with UACC-62, > 100 µM (inactive); in the assay on CAKI-1 it was > 100 µM (inactive); in the assay on HT-29 it was > 100 µM (inactive); in the assay with SN12C, > 100 µM (inactive); in the assay on SNB-19 it was > 100 µM (inactive). The GI50 with HL-60 and with EKVX was > 100 µM (inactive) throughout.

Values taken from ChEMBL document CHEMBL1201862, “PubChem BioAssay data set” (2004).
